Counter-ions that a name gives are not always drawn. Like-named read-outs stand apart in the source and are kept apart here.
Tested on: lymphocytic leukemia P388
Experiment: Lymphocytic leukemia P388 test (intraperitoneal administration)
Format: in vivo, DBA/2 mice
Procedure: The animals used are DBA/2 mice all of one sex, weighing a minimum of 17 g. and all within a 3 gram weight range. There are 5 or 6 animals per test group. The tumor transplant is by intraperitoneal injection of 0.1 ml. of dilute ascitic fluid containing 10^6 cells of lymphocytic leukemia P388. The test compounds are administered intraperitoneally on days one, 5 and 9 (relative to tumor inoculation) at various doses. The animals are weighed and survivors are recorded on a regular basis for 30 days. The median survival time and the ratio of survival time for treated (T)/control (C) animals are calculated.

[1] = 0.78 mg./kg. i.p., days 1, 5 and 9
[2] = 1.56 mg./kg. i.p., days 1, 5 and 9
[3] = 3.1 mg./kg. i.p., days 1, 5 and 9
[4] = 6.2 mg./kg. i.p., days 1, 5 and 9
[5] = 12.5 mg./kg. i.p., days 1, 5 and 9
[6] = 25 mg./kg. i.p., days 1, 5 and 9
[7] = 50 mg./kg. i.p., days 1, 5 and 9
[8] = 100 mg./kg. i.p., days 1, 5 and 9
[9] = 200 mg./kg. i.p., days 1, 5 and 9
[10] = Mus musculus, P388, ip; 0.78 mg./kg. i.p., days 1, 5 and 9; efficacy ≥125%; read-out: T/C × 100
[11] = Mus musculus, P388, ip; 1.56 mg./kg. i.p., days 1, 5 and 9; efficacy ≥125%; read-out: T/C × 100
[12] = Mus musculus, P388, ip; 3.1 mg./kg. i.p., days 1, 5 and 9; efficacy ≥125%; read-out: T/C × 100
[13] = Mus musculus, P388, ip; 6.2 mg./kg. i.p., days 1, 5 and 9; efficacy ≥125%; read-out: T/C × 100
[14] = Mus musculus, P388, ip; 12.5 mg./kg. i.p., days 1, 5 and 9; efficacy ≥125%; read-out: T/C × 100
[15] = Mus musculus, P388, ip; 25 mg./kg. i.p., days 1, 5 and 9; efficacy ≥125%; read-out: T/C × 100
[16] = Mus musculus, P388, ip; 50 mg./kg. i.p., days 1, 5 and 9; efficacy ≥125%; read-out: T/C × 100
[17] = Mus musculus, P388, ip; 100 mg./kg. i.p., days 1, 5 and 9; efficacy ≥125%; read-out: T/C × 100
[18] = Mus musculus, P388, ip; 200 mg./kg. i.p., days 1, 5 and 9; efficacy ≥125%; read-out: T/C × 100
[19] = 3.12 mg./kg. i.p., days 1, 5 and 9
[20] = 6.25 mg./kg. i.p., days 1, 5 and 9
[21] = Mus musculus, P388, ip; 3.12 mg./kg. i.p., days 1, 5 and 9; efficacy ≥125%; read-out: T/C × 100
[22] = Mus musculus, P388, ip; 6.25 mg./kg. i.p., days 1, 5 and 9; efficacy ≥125%; read-out: T/C × 100
[23] = Mus musculus, P388, ip, read-out: T/C × 100

| Compound | Median Survival Time [1] | Median Survival Time [2] | Median Survival Time [3] | Median Survival Time [4] | Median Survival Time [5] | Median Survival Time [6] | Median Survival Time [7] | Median Survival Time [8] | Median Survival Time [9] | response vs control in vivo at 0.78 mg/kg [10] | response vs control in vivo at 1.56 mg/kg [11] | response vs control in vivo at 3.1 mg/kg [12] | response vs control in vivo at 6.2 mg/kg [13] | response vs control in vivo at 12.5 mg/kg [14] | response vs control in vivo at 25 mg/kg [15] | response vs control in vivo at 50 mg/kg [16] | response vs control in vivo at 100 mg/kg [17] | response vs control in vivo at 200 mg/kg [18] | Median Survival Time [20] | response vs control in vivo at 6.25 mg/kg [22] | other results |
| --- | --- | --- | --- | --- | --- | --- | --- | --- | --- | --- | --- | --- | --- | --- | --- | --- | --- | --- | --- | --- | --- |
| Cl.Cl.O=C1c2c(O)ccc(O)c2C(=O)c2c(NCCN(CCO)CCO)ccc(NCCN(CCO)CCO)c21 [1,4-Bis[2-[di(β-hydroxyethyl)amino]ethylamino]-5,8-dihydroxyanthraquinone dihydrochloride] | 14.5 days | 16.0 days | 19.0 days | 18.5 days | 18.5 days | 21.5 days | 20.5 days | 22.0 days | > 30.0 days | 161% | 178% | 211% | 206% | 206% | 239% | 228% | 244% | > 333% | – | – | – |
| O=C1C2=C(NCCCNCCO)CCC(NCCCNCCO)=C2C(=O)c2c(O)ccc(O)c21 [Leuco-1,4-bis[3-(2-hydroxyethylamino)-1-propylamino]-5,8-dihydroxyanthraquinone] | – | – | – | – | 19.0 days | 18.5 days | 25.0 days | 27.5 days | 33.5 days | – | – | – | – | 173% | 168% | 227% | 250% | 305% | 18.0 days | 164% | Median Survival Time [19]: 15.0 days; response vs control in vivo at 3.12 mg/kg [21]: 136% |
| O=C1c2c(O)ccc(O)c2C(=O)c2c(NCCN3CCOCC3)ccc(NCCN3CCOCC3)c21 [1,4-Bis(2-morpholinoethylamino)-5,8-dihydroxyanthraquinone] | – | – | – | – | – | – | – | 12.0 days | 14.0 days | – | – | – | – | – | – | – | 126% | 147% | – | – | – |
| CC(O)CNCCNC1=C2C(=O)c3c(O)ccc(O)c3C(=O)C2=C(NCCNCC(C)O)CC1 (centres unmarked) [Leuco-1,4-bis[2-(2-hydroxy-1-propylamino)ethylamino]-5,8-dihydroxyanthraquinone] | – | – | – | – | 21.5 days | 20.5 days | 24.0 days | 26.5 days | 9.0 days | – | – | – | – | 195% | 186% | 218% | 241% | 82% | 20.0 days | 182% | – |
| O=C1c2c(O)ccc(O)c2C(=O)c2c(NCCNCCN3CCOCC3)ccc(NCCNCCN3CCOCC3)c21 [1,4-Bis[2-[2-(1-morpholino)ethylamino]ethylamino]-5,8-dihydroxyanthraquinone tetrahydrochloride] | – | – | 13.0 days | 14.0 days | 15.0 days | 19.5 days | 18.5 days | 20.0 days | 9.5 days | – | – | 130% | 140% | 150% | 195% | 185% | – | 95% | – | – | response vs control in vivo at 100 mg/kg [23]: 200% |
| O=C1C2=C(NCCN3CCOCC3)CCC(NCCN3CCOCC3)=C2C(=O)c2c(O)ccc(O)c21 [Leuco-1,4-bis(2-morpholinoethylamino)-5,8-dihydroxyanthraquinone] | – | – | – | – | – | 12.0 days | 11.0 days | 12.0 days | 13.0 days | – | – | – | – | – | 126% | 116% | 126% | 137% | – | – | – |
| O=C1C2=C(NCCN(CCO)CCO)CCC(NCCN(CCO)CCO)=C2C(=O)c2c(O)ccc(O)c21 [Leuco-1,4-bis[2-[di(β-hydroxyethyl)amino]ethylamino]-5,8-dihydroxyanthraquinone] | – | – | – | 12.0 days | 13.5 days | 15.0 days | 16.0 days | 17.0 days | 19.0 days | – | – | – | 120% | 135% | 150% | 160% | 170% | 190% | – | – | – |
| CC(O)CNCCNc1ccc(NCCNCC(C)O)c2c1C(=O)c1c(O)ccc(O)c1C2=O.Cl.Cl (centres unmarked) [1,4-Bis[2-(2-hydroxy-1-propylamino)ethylamino]-5,8-dihydroxyanthraquinone dihydrochloride] | 19.0 days | 19.0 days | 22.0 days | 23.0 days | 24.0 days | 12.0 days | – | – | – | 190% | 190% | 220% | 230% | 240% | 120% | – | – | – | – | – | Median Survival Time (0.39 mg./kg. i.p., days 1, 5 and 9): 17.5 days; response vs control in vivo at 0.39 mg/kg (Mus musculus, P388, ip; 0.39 mg./kg. i.p., days 1, 5 and 9; efficacy ≥125%; read-out: T/C × 100): 175% |
| O=C1C2=C(NCCNCCCO)CCC(NCCNCCCO)=C2C(=O)c2c(O)ccc(O)c21 [Leuco-1,4-bis[2-(3-hydroxy-1-propylamino)ethylamino]-5,8-dihydroxyanthraquinone] | 18.0 days | 19.5 days | 18.5 days | – | 19.5 days | 22.0 days | 34.0 days | 38.0 days | 14.0 days | 164% | 177% | 168% | – | 177% | – | 309% | 345% | 127% | 16.5 days | 150% | response vs control in vivo at 25 mg/kg [23]: 200% |
| O=C1c2c(O)ccc(O)c2C(=O)c2c(NCCN3CC3)ccc(NCCN3CC3)c21 [1,4-Bis[2-(1-aziridino)ethylamino]-5,8-dihydroxyanthraquinone] | 14.0 days | 17.0 days | – | – | 20.5 days | 20.0 days | 21.5 days | 28.5 days | – | 140% | 170% | – | – | 205% | – | 215% | 285% | – | 18.5 days | 185% | Median Survival Time [19]: 19.5 days; response vs control in vivo at 3.12 mg/kg [21]: 195%; response vs control in vivo at 25 mg/kg (Mus musculus, P388, ip; read-out: T/C × 100): 200% |
| Cl.Cl.O=C1c2c(O)ccc(O)c2C(=O)c2c(NCCCNCCO)ccc(NCCCNCCO)c21 [1,4-Bis[3-(2-hydroxyethylamino)-1-propylamino]-5,8-dihydroxyanthraquinone dihydrochloride] | 15.0 days | 16.0 days | – | – | 22.5 days | 26.5 days | 32.0 days | 12.5 days | – | 136% | 145% | – | – | 205% | 241% | 291% | 114% | – | 19.0 days | 173% | Median Survival Time [19]: 19.0 days; response vs control in vivo at 3.12 mg/kg [21]: 173% |

— patent US4526989A, “1,4-Bis (substituted-amino)-5,8-dihydroxy-anthraquinones and leuco bases thereof” (priority 1979, dated 1985)
